This passage reports AC50 results from PubChem BioAssay AID463203 (Broad Institute, 2010).

Calls of active or inactive are those of the source.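 The calls were made as follows: active = more than half of replicate measurements showing over 20% loss of kinase signal relative to plate controls; inconclusive = some but at most half of replicates over 20% loss; inactive = no replicate over 20% signal loss.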 Where only a bound is given, the exact number is not on record here.

The target in this assay is Glycogen synthase kinase-3 alpha (Homo sapiens) (UniProt P49840). Kind of assay: concentration-response blocking of human GSK3A – biochemical, luminescence, cell-free homogeneous, retest, dose response (AID 463203). The settings on record: GSK-3 alpha enzyme, ADP-Glo luminescence, 60 min.
Sequence of Glycogen synthase kinase-3 alpha (Homo sapiens) (P49840 whole entry, looked up): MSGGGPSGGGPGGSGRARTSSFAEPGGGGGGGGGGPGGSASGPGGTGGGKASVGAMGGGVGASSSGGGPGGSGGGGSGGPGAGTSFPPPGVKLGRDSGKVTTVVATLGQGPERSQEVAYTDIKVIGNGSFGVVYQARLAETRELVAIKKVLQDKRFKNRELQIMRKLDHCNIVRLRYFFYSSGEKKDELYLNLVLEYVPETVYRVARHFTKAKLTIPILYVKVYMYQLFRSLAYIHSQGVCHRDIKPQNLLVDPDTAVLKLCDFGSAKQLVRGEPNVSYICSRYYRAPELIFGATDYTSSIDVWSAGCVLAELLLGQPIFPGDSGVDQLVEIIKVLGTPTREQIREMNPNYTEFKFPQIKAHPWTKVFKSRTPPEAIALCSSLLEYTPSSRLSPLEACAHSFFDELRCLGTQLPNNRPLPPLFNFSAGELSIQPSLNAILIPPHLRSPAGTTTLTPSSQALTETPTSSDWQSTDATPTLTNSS

Take `Cc1ccc(N(Cc2ccc([N+](=O)[O-])cc2)C(=O)c2ccco2)cc1`: the AC50 is > 30 µM (inactive).
`Cc1cccc(-n2ncc(C#N)c2-n2cccc2)c1`: the AC50 was > 30 µM (inactive).
In the case of `Cc1cc(C(=O)CN(Cc2ccc(F)cc2)S(=O)(=O)c2ccc3c(c2)OCCO3)c(C)n1C` it was > 30 µM (inactive).
As for `N#C/C(=N\Nc1c(Cl)cccc1Cl)C(=O)NN`, the figure is 5.86 µM.
In the case of `C=CCN1C(=O)/C(=C\c2cccs2)C(C(=O)OC)=C1C` it was > 30 µM (inactive).
As for `CC(C)CCSc1cc(NCCO)c([N+](=O)[O-])c2nonc12`, the AC50 is > 30 µM (inactive).
As for `COc1ccc2nc(NC(=O)CN3C(=O)NC4(CCCC4)C3=O)sc2c1`, the figure is 26.3 µM.
In the case of `COC1(OC)N=C(N)C2(C#N)C(c3ccc(C)cc3)C12C#N` (stereo unspecified) it was > 30 µM (inactive); in that of `COc1ccc(-c2nsc3c(N4CCCCC4C)ncnc23)cc1` (stereo unspecified), > 30 µM (inactive).
With `C/C(=C/c1oc2ccc(O)cc2c1[N+](=O)[O-])N(C)C`, the AC50 is > 30 µM (inactive).
For `CC(OC(=O)Cc1c[nH]c2ccccc12)C(=O)N(C)c1ccccc1` (stereo unspecified), the AC50 is > 30 µM (inactive).
As for `COc1cc(OC)cc(C2C(C#N)=C(N)Oc3n[nH]c(-c4cccnc4)c32)c1` (stereo unspecified), the AC50 was > 30 µM (inactive).
As for `c1cncc(CSc2nnc3ccc(-c4cccs4)nn23)c1`, the figure is 14.4 µM; as for `Cc1cc(C)c(/C=N/NC(=O)c2nnn(-c3nonc3N)c2CN2CCC(C)CC2)c(C)c1`, > 30 µM (inactive); as for `Cc1sc2ncnc(NCCN3CCOCC3)c2c1C`, > 30 µM (inactive).
Regarding `O=C(O)c1cccc2c1C(=O)c1ccccc1C2=O`, the AC50 is > 30 µM (inactive).
On to `C[C@H](CO)N1C[C@H](C)[C@@H](CN(C)S(=O)(=O)c2cccs2)Oc2c(NS(=O)(=O)c3ccc(F)cc3)cccc2C1=O`, for which the AC50 is > 30 µM (inactive).
As for `COc1ccc(-c2nc(NC(=O)C3CC(=O)N(c4ccc5c(c4)OCCO5)C3)sc2C)cc1` (stereo unspecified), the figure is > 30 µM (inactive); as for `CC(C)N=C(NC#N)SCc1ccccc1F`, > 30 µM (inactive).
In the case of `CCCCc1ccc(NC(=O)N[C@@H](CC(C)C)C(=O)O)cc1` it was > 10 µM (inactive).
For the compound `O=P(COCCOCP(=O)(c1ccccc1)c1ccccc1)(c1ccccc1)c1ccccc1`, the AC50 is > 30 µM (inactive).
In the case of `CCCCC(=O)Nc1ccc2c(c1)C(=O)NC2=O` it was 15.6 µM; in that of `O=C(CSc1nnc(SCc2ccccc2Cl)s1)N/N=C/c1ccc(C(=O)O)cc1`, 5.94 µM; in that of `CCCc1nnc(NC(=O)CCN2C(=O)c3ccccc3C2=O)s1`, > 30 µM (inactive).
Consider `C[C@H](NC(=O)c1nc[nH]c1C(=O)NC1CCN(C(=O)OC(C)(C)C)CC1)C(=O)OC(C)(C)C`, for which the concentration at half-maximal activity (AC50) was 31.3 µM.
In the case of `CC1(C)Oc2ccc3ccc(=O)oc3c2-c2cnoc21` it was > 30 µM (inactive); in that of `CN(C)CCCNS(=O)(=O)c1ccc(NC2CCCCCC2)c([N+](=O)[O-])c1`, > 30 µM (inactive); in that of `COc1cc(O)c(NC(C)=O)c2nonc12`, > 30 µM (inactive).
`CC(=O)c1cc(-c2ccc(F)cc2)n(CCC(=O)Nc2cc(C)[nH]n2)c1C`: the AC50 was 11.9 µM.
For `CCOC(=O)CSc1ncnc2c(C(=O)OCC)c3n(c12)CCC3`, the AC50 was > 30 µM (inactive).
Regarding `Clc1ccc(N/N=C/c2ccncc2)cc1Cl`, the AC50 is > 30 µM (inactive).
In the case of `CN(CCO)c1ncnc2c1sc1nc(N3CCOCC3)c3c(c12)CCC3` it was > 30 µM (inactive); in that of `COc1cccc(-c2[nH]nc3c2C(c2ccc(C)o2)C(C#N)=C(N)O3)c1` (stereo unspecified), > 30 µM (inactive).
With `COc1ccc(-c2c(C(C)=O)c(C)nc3sc4c(=O)[nH]nnc4c23)cc1`, the AC50 was 30.1 µM.
In the case of `CCOc1ccc(-c2nnc(N)s2)cc1`, the AC50 is > 30 µM (inactive).
In the case of `CCOC(=O)c1c(NC(=O)CSc2nnc(CNc3ccc(C)cc3C)o2)sc(C)c1C` it was > 30 µM (inactive); in that of `O=C1CCCC/C1=C\Nc1ccc(O)cc1`, 21.6 µM; in that of `CCNc1cc(N2CCCC2)ccc1[N+](=O)[O-]`, > 30 µM (inactive).
As for `Nc1ccc2nc(C3CCCCC3)[nH]c2c1`, the figure is > 30 µM (inactive); as for `O=C(Oc1cccc(NC(=O)c2ccco2)c1)c1cccc(S(=O)(=O)N2CCCCC2)c1`, > 30 µM (inactive).
In the case of `COC(=O)c1cnn(C(=O)c2cc(OC)ccc2Br)c1N` it was > 30 µM (inactive); in that of `CCc1ccc(C2C3=C(CC(C)(C)CC3=O)Nc3c2c(=O)[nH]c2nc(C)nn32)cc1` (stereo unspecified), > 30 µM (inactive); in that of `O=C1c2cccc(O)c2C(=O)c2c(O)cc(CO)cc21`, > 30 µM (inactive).
Take `O=C(NCC1CCN(Cc2ccccc2Cl)CC1)Nc1ccccc1F`: the AC50 was > 30 µM (inactive).
As for `Cc1c(C(=O)N2CCN(c3ccccc3)CC2)oc2c(Cl)cccc12`, the figure is > 30 µM (inactive).
On to `Cn1nnnc1SCC(=O)Nc1nn(-c2ccccc2)nc1C(N)=O`, for which the AC50 was 24.2 µM.
In the case of `CCOC(=O)c1nnn(-c2nonc2OC)c1-c1ccccc1` it was > 30 µM (inactive); in that of `O=C(c1ccccc1)c1cnc(Nc2ccccc2Cl)s1`, > 30 µM (inactive).
For `COc1cc(/C=N/NC(=O)c2ccc(COc3ccccc3Cl)o2)cc(Br)c1O`, the AC50 is > 30 µM (inactive).
As for `Cc1nc(N2CCOCC2)nc(N2CCCCC2)c1[N+](=O)[O-]`, the figure is > 30 µM (inactive).
`CCOC(=O)N1CCC(N2CCN(S(=O)(=O)c3ccc(Cl)cc3)CC2)CC1`: the AC50 is > 30 µM (inactive).
As to `Fc1ccc(Nc2nc(-c3ccncc3)nc3ccccc23)cc1F`, the AC50 is > 30 µM (inactive).
Consider `O=C(COC(=O)c1cccc(S(=O)(=O)N2CCOCC2)c1)Nc1ncc(Cl)cc1Cl`, for which the AC50 is > 30 µM (inactive).
Consider `COc1cc(/C=N/n2nnnc2N)ccc1OCC#N`, for which the AC50 is > 30 µM (inactive).
Consider `COc1ccc(CNc2ccc3cn[nH]c3c2)c(OC)c1OC`, for which the half-maximal activity concentration (AC50) was 19.8 µM.
In the case of `N#Cc1c(Nc2ccccc2)c(C=O)c[nH]c1=O` it was > 30 µM (inactive).
As for `COc1cc(/C=N/Nc2nc(=O)[nH]nc2C)cc([N+](=O)[O-])c1O`, the figure is 22.1 µM; as for `COc1ccc(NC(=O)Nc2ccc(F)cc2)c(C)c1`, > 30 µM (inactive); as for `C[C@H](CO)N1C[C@H](C)[C@@H](CN(C)S(=O)(=O)c2ccc(F)cc2)Oc2c(NC(=O)Nc3ccccc3)cccc2C1=O`, > 30 µM (inactive).
As for `CC(=O)Oc1cc2c3c(c1)/C(=C1/SC(=S)NC1=O)C(=O)N3C(C)(C)C=C2C`, the figure is > 30 µM (inactive).
`CCC(=NCc1cccnc1)c1c(O)n(C2CCCCC2)c(=O)[nH]c1=O`: the AC50 was > 30 µM (inactive).
As for `CCOC(=O)c1cc(C)[nH]c1C`, the figure is > 30 µM (inactive).
Take `CN(C)c1ccc(Nc2nc(N)c3ccccc3n2)cc1`: the AC50 is 18.2 µM.
Regarding `Nc1ncnc2c1ncn2[C@@H]1O[C@H](COS(=O)(=O)O)[C@@H](O)[C@H]1O`, the AC50 was > 30 µM (inactive).
Consider `O=C(CSc1nnc(-c2ccc(O)cc2)o1)Nc1ccc2c(c1)OCCO2`, for which the AC50 was 0.463 µM.
As for `Cc1nc2ccc(-c3ccccc3)cc2o1`, the figure is > 30 µM (inactive).
For `COC(=O)[C@@H](NC(=O)NCc1ccccc1Cl)C(C)C`, the AC50 is > 30 µM (inactive).
On to `CCN1CCN(c2nc(Nc3ccccc3F)nc(N)c2[N+](=O)[O-])CC1`, for which the AC50 is > 30 µM (inactive).
As to `O=C1NC(=O)/C(=C/c2ccc(-c3cc(C(=O)O)ccc3Cl)o2)S1`, the concentration at half-maximal activity (AC50) is 13.5 µM.
In the case of `O=C(Nc1c(C(=O)C2CC2)oc2ccccc12)c1ccc(Cl)cc1` it was > 30 µM (inactive); in that of `Cc1ccc(-c2nnc(N3CCN(C(=O)COc4ccccc4)CC3)c3ccccc23)cc1`, > 30 µM (inactive); in that of `Cc1cc2nc(-c3cccnc3SCC(=O)NCc3ccco3)[nH]c2cc1C`, > 30 µM (inactive).
With `CCOC(=O)C1CCCN(c2c(C(=O)c3ccccc3)cnc3ccccc23)C1` (stereo unspecified), the AC50 was > 30 µM (inactive).
In the case of `CCCN(CCC)Cc1c(C(=O)N/N=C/C(C)=C\c2ccco2)nnn1-c1nonc1N` it was > 30 µM (inactive); in that of `N#Cc1c(-c2ccccc2Cl)c2c([nH]c1=O)-c1ccccc1OC2`, > 30 µM (inactive); in that of `Cc1cc(N2CCN(c3ccccc3)CC2)n2cc(-c3ccccc3)nc2n1`, > 30 µM (inactive).
On to `Cc1ccccc1NC1=NCCCS1`, for which the AC50 is > 30 µM (inactive).
Turning to `CCC(CO)Nc1ncc([N+](=O)[O-])cc1C#N` (stereo unspecified), the AC50 was > 30 µM (inactive).
With `S=C(Nc1cccc(Cl)c1)Nc1cccc2cnccc12`, the AC50 was > 30 µM (inactive).
As for `Cc1ccc2nc(-c3ccccn3)[nH]c2c1`, the figure is > 30 µM (inactive).
As for `COc1ccc(C(=O)c2cc(C(C)=O)c(Nc3ccccc3)s2)cc1`, the figure is > 30 µM (inactive); as for `CCCCc1cc(=O)oc2cc(O)ccc12`, 25.9 µM; as for `CC(C)c1nnc(NC(=O)CCN2C(=O)c3ccccc3C2=O)s1`, > 30 µM (inactive).
With `COc1ccc(S(=O)(=O)N[C@@H](CC(C)C)C(=O)O)cc1`, the AC50 was > 30 µM (inactive).
In the case of `CC(C)CCNc1nc(N)c([N+](=O)[O-])c(N2CCCCCC2)n1`, the half-maximal activity concentration (AC50) is 8.86 µM.
With `O=C(CSc1nnc(SCC(=O)c2ccco2)s1)c1ccco1`, the AC50 is > 30 µM (inactive).
`O=C(NCCN1CCN(Cc2ccccc2)CC1)Nc1cc(Cl)cc(Cl)c1`: the AC50 is > 30 µM (inactive).
In the case of `CC1(C)CC(=O)C(C2c3ccccc3Oc3ccccc32)C(=O)C1` it was > 30 µM (inactive); in that of `O=C1N=C(C=c2ccc(=Cc3[nH]c(=O)[nH]c3O)cc2)C(=O)N1`, 15.5 µM.
In the case of `Cc1cc(C)n(CCC(=O)N=Nc2c(O)[nH]c3ccc(Br)cc23)n1` it was 11.5 µM; in that of `COc1ccc(C2c3sc(=O)[nH]c3SC3C4CCC(C4)C23)cc1OC` (stereo unspecified), 1.92 µM.
